Experimental data as given in US20110053964A1, “4-AMINOQUINAZOLINE DERIVATIVES AND METHODS OF USE THEREOF” (priority 2006, published 2011).

How the values were obtained:
[1] = Pharmacokinetics in rats, oral dosing; settings: rat, oral dosing 20 mg/kg, tosylate salt; data not shown
[2] = Pharmacokinetics in rats, intravenous; assay type: in vivo, Sprague-Dawley rats; settings: rat, single intravenous bolus 2 mg/kg; for half-life compared to lapatinib: tosylate salt (FIGS. 2 and 3)
Description: Rats were anesthetized using pentobarbital (IP 40 mg/kg) prior to administration of compound. […] The rats were administered a single bolus 2 mg/kg dose of compound via jugular cannula, followed by a wash-out with saline. Blood samples (0.25 mL) were taken from the jugular at 5, 15 and 30 minutes and at 1, 2, 4, 6, 9, 12, and 24 hours post-dosing. Blood samples were centrifuged within 15 minutes of removal from the animal, centrifuged, and the plasma fraction removed and stored at −20° C. until analysis. Samples were analyzed by LC-MS.

Cc1ccc(S(=O)(=O)O)cc1.Cc1ccc(S(=O)(=O)O)cc1.[2H]C([2H])(CS(C)(=O)=O)NC([2H])([2H])c1ccc(-c2ccc3ncnc(Nc4ccc(OCc5cccc(F)c5)c(Cl)c4)c3c2)o1 [Compound 101, [3-Chloro-4-(3-fluorobenzyloxy)phenyl]-(6-{5-[(2-methanesulfonyl-1,1-d2-ethylamino)-d2-methyl]-furan-2-yl}-quinazolin-4-yl)amine di-tosylate]
half life compared to lapatinib [1]: longer half lives than lapatinib | half-life compared to lapatinib [2]: significantly longer half-lives than lapatinib

Cc1ccc(S(=O)(=O)O)cc1.Cc1ccc(S(=O)(=O)O)cc1.[2H]C([2H])(NC([2H])([2H])C([2H])([2H])S(=O)(=O)C([2H])([2H])[2H])c1ccc(-c2ccc3ncnc(Nc4ccc(OCc5cccc(F)c5)c(Cl)c4)c3c2)o1 [Compound 102, [3-Chloro-4-(3-fluoro-benzyloxy)-phenyl]-(6-{5-[(2-d3-methanesulfonyl-1,1,2,2-4-ethylamino)-d2-methyl]-furan-2-yl}-quinazolin-4-yl)amine di-tosylate]
half life compared to lapatinib [1]: longer half lives than lapatinib | half-life compared to lapatinib [2]: significantly longer half-lives than lapatinib

CS(=O)(=O)CCNCc1ccc(-c2ccc3ncnc(Nc4ccc(OCc5cccc(F)c5)c(Cl)c4)c3c2)o1.Cc1ccc(S(=O)(=O)O)cc1 [Lapatinib, [3-Chloro-4-(3-fluorobenzyloxy)phenyl](6-{5-[(2-methanesulfonylethylamino)-methyl]furan-2-yl}-quinazolin-4-yl)amine 4-toluenesulfonate salt, reference compound]
half-life ([2]; Sprague-Dawley, tosylate salt, plasma): 60 ± 3 min
